The text below walks through data of patent publication US7837991B2, “Method of cancer treatment by p53 protein control” (Aventis Pharma, S.A., priority 1994, dated 2010).

One experiment deals with T1, bovine m-calpain (Bos taurus, UniProt Q27971).
T1 construct: purchased Sigma
T1 sequence (Q27971 20-700 limits assumed): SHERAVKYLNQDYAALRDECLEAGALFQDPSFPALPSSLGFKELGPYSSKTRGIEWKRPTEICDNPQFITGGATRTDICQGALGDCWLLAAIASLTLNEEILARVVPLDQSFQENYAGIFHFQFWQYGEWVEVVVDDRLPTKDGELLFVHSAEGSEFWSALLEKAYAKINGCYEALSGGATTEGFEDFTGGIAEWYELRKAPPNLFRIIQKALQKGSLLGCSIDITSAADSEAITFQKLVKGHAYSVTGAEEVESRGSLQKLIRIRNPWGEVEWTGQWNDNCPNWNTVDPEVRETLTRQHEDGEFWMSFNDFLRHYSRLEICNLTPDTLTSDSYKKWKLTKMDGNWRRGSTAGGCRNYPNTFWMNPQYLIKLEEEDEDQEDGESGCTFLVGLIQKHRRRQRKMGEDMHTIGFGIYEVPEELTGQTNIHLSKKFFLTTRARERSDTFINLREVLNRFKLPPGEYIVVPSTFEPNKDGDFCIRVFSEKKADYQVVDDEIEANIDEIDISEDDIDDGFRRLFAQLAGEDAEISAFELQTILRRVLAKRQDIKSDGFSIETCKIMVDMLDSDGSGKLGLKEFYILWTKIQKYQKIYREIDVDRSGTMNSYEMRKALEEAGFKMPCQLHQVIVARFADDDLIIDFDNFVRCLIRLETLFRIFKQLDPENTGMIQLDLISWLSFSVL
T1 sequence (P13135 1-263 partner): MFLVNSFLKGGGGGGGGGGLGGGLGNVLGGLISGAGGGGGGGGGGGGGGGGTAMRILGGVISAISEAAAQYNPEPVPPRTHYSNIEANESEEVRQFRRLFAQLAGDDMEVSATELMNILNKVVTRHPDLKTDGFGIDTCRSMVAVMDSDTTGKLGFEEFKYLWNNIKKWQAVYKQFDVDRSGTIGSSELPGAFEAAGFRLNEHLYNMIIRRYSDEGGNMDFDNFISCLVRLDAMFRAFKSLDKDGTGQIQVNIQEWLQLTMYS
The experiment in a line: Degradation of p53 proteins by exogenous m-calpain in rabbit reticulocyte lysate. The class given is biochemical. As to conditions: m-calpain plus calcium, mouse and human wild-type and mutated p53. The source says: 1.1. […] The proteins thus obtained are resistant to any degradation, even in the presence of a high concentration of calcium (cofactor essential for the calpains). The addition of bovine m-calpain (Sigma) to the reticulocyte lysate in the presence of calcium led to the rapid disappearance of the neosynthesized proteins and the appearance of proteolytic fragments which are resolvable by electrophoresis. The degradation resistance of other proteins such as dihydrofolate reductase or glyceraldehyde-3-phosphate dehydrogenase under the same experimental conditions indicates the substrate specificity of the reaction.
1.2. Use of inhibitors of calpain for modulating the levels of p53 proteins: in the above Example 1.1., it was shown that the addition of m-calpain induced degradation of the p53 proteins. In this example, in addition to m-calpain, various compounds were introduced into the medium in order to test their capacity to inhibit the activity of calpain.

Experiment [1] deals with calpains of the cytoplasmic extract. The experiment can be described thus: Degradation of p53 proteins by endogenous calpains in cytoplasmic extracts of Daudi or Jurkat cells. The class given is biochemical, human. The settings on record: in the presence of calcium. As to the method:
2.1. Degradation by the endogenous calpains: mouse and human wild-type p53 proteins, as well as certain mutated forms (cf Example 1) were translated in the reticulocyte lysate and were then incubated in the presence of cytoplasmic extracts of Daudi or Jurkat human lymphoblastoid cells. The cytoplasmic extracts were prepared in the following manner: the cells (available at the ATCC) were cultured in DMEM medium supplemented with 10% foetal calf serum. The cells were then harvested, washed in PBS buffer and then incubated for 5 min in a detergent-free hypotonic lysis buffer (HEPES 20 mM, pH 7.5; KOAc 10 mM; MgOAc 1.5 mM; 2 ml per 5×10^8 cells). The lysis was completed using a Dounce homogenizer and then checked under a microscope. The nuclei were then removed by centrifugation at 2000 g for 5 min, and the supernatants were centrifuged at 10,000 g for 1 hour (Beckman SW60). The cytoplasmic extracts were then aliquoted in an amount of 5 to 12 mg/ml.

In the case of `O=C(O)CN(CCOCCOCCN(CC(=O)O)CC(=O)O)CC(=O)O` [EGTA], on bovine m-calpain, the “inhibition of the degradation of the p53 proteins induced by the exogenous calpain” value was “capable of inhibiting the degradation of the p53 proteins”.

As to `O=S(=O)(F)Cc1ccccc1` [PMSF], in experiment [1], the “effect on calcium-dependent degradation of p53 proteins in cytoplasmic extracts” value (“effect on calcium-dependent degradation” below) is on record as “show that the degradation of these proteins is dependent on the calpains”.

Take `CC(=O)N[C@@H](CC(C)C)C(=O)N[C@@H](CC(C)C)C(=O)N[C@H](C=O)CCCNC(=N)N` [leupeptin]: the “effect on calcium-dependent degradation” value in experiment [1] is on record as “show that the degradation of these proteins is dependent on the calpains”.

For the molecule aprotinin, the “effect on calcium-dependent degradation” value in experiment [1] was “show that the degradation of these proteins is dependent on the calpains”.

B1: soybean trypsin inhibitor (protein, UniProt P01070 25-205, looked up)
Trypsin inhibitor A: DFVLDNEGNPLENGGTYYILSDITAFGGIRAAPTGNERCPLTVVQSRNELDKGIGTIISSPYRIRFIAEGHPLSLKFDSFAVIMLCVGIPTEWSVVEDLPEGPAVKIGENKDAMDGWFRLERVSDDEFNNYKLVFCPQQAEDDKCGDIGISIDHDDGTRRLVVSKNKPLVVQFQKLDKESL
For the molecule B1, the “effect on calcium-dependent degradation” value in experiment [1] is reported as “show that the degradation of these proteins is dependent on the calpains”.
